Consider ten compounds from DBAASP.

Each structure is given as a SMILES string. ≈ marks a conversion by molar mass, not a printed value. A value given as a limit tells only on which side of the number the result lay.

Holding throughout (assay): ≥ marks a high value that may be exact or a test limit, other limits are often not marked, values filed in µg/mL are converted to µM
Experiment [1] concerns Candida albicans ATCC 2002.
The test system of experiment [2] is Escherichia coli ATCC 25922.
For experiment [3], the system named is Pseudomonas aeruginosa CMCCB 10104.
Experiment [4] relates to Staphylococcus aureus ATCC 25923.
Experiment [5] relates to Escherichia coli NCTC 10418.
Experiment [6] relates to Staphylococcus aureus NCTC 10788.
The next experiment has as its system Escherichia coli UB1005.
The subject of experiment [7] is Salmonella enterica subsp. enterica serovar Typhimurium C77-31.
Experiment [8] relates to Staphylococcus aureus ATCC 29213.
Experiment [9] has as its system Staphylococcus epidermidis ATCC 12228.
The subject of experiment [10] is Enterococcus faecalis ATCC 29212.
Experiment [11] has as its system Pseudomonas aeruginosa ATCC 27853.
Experiment [12] deals with Salmonella enterica subsp. enterica serovar Pullorum C79-13.
The test system of experiment [13] is Salmonella enterica subsp. enterica serovar Typhimurium ATCC 14028.

Broadly, the MIC is the least concentration at which growth counts as inhibited. Low values mean inhibition by little substance, high ones a need for much substance. Regarding `CC[C@H](C)[C@H](NC(=O)[C@H](CCCCN)NC(=O)[C@H](CCCCN)NC(=O)CNC(=O)[C@H](CCSC)NC(=O)[C@H](CO)NC(=O)[C@@H](NC(=O)[C@@H](NC(=O)[C@H](CC(N)=O)NC(=O)CNC(=O)[C@H](CC(C)C)NC(=O)[C@H](Cc1ccccc1)NC(=O)[C@@H](N)C(C)C)[C@@H](C)CC)C(C)C)C(=O)O` [VFLGNIVSMGKKI], the MIC in experiment [1] is at least 142 µM; in experiment [2], over 142 µM; in experiment [3], at least 142 µM; in experiment [4], over 142 µM.

Take `CC[C@H](C)[C@@H]1NC(=O)[C@H](CCCCN)NC(=O)[C@@H](NC(=O)[C@H](CCCCN)NC(=O)[C@H](CC(C)C)NC(=O)[C@H](CC(N)=O)NC(=O)[C@H](CC(=O)O)NC(=O)[C@H](CC(C)C)NC(=O)[C@H](CC(C)C)NC(=O)[C@@H](NC(=O)[C@@H](NC(=O)[C@H](CC(=O)O)NC(=O)[C@H](CCSC)NC(=O)[C@H](CC(N)=O)NC(=O)[C@H](CCCCN)NC(=O)[C@H](C)NC(=O)[C@@H](NC(=O)[C@H](CC(N)=O)NC(=O)[C@H](CCCCN)NC(=O)[C@H](C)NC(=O)[C@@H](NC(=O)[C@H](C)NC(=O)[C@H](CCSC)NC(=O)[C@H](Cc2ccccc2)NC(=O)CN)[C@@H](C)O)C(C)C)C(C)C)[C@@H](C)O)CSSC[C@@H](C(=O)O)NC(=O)[C@H](C)NC(=O)[C@H](CCCCN)NC(=O)[C@H]([C@@H](C)O)NC1=O` [GFMATAKNVAKNMDVTLLDNLKCKITKAC]: the MIC was 1.3 µM (≈ 4.1 µg/mL) in experiment [1], 2.61 µM (≈ 8.2 µg/mL) in [2], 1.3 µM (≈ 4.1 µg/mL) in [3] and 1.3 µM (≈ 4.1 µg/mL) in experiment [4].

Consider `CC[C@H](C)[C@H](N)C(=O)N[C@@H](CC(C)C)C(=O)N1CCC[C@H]1C(=O)N[C@@H](Cc1ccccc1)C(=O)N[C@H](C(=O)N[C@@H](C)C(=O)NCC(=O)N[C@H](C(=O)N[C@@H](C)C(=O)N[C@@H](C)C(=O)N[C@@H](CCC(=O)O)C(=O)N[C@@H](CCSC)C(=O)N[C@@H](CCSC)C(=O)N[C@@H](CCC(N)=O)C(=O)N[C@@H](Cc1cnc[nH]1)C(=O)N[C@H](C(=O)N[C@@H](Cc1ccc(O)cc1)C(=O)N[C@H]1CSSC[C@@H](C(=O)O)NC(=O)[C@H](CCCCN)NC(=O)[C@H](CCCCN)NC(=O)[C@H](CO)NC(=O)[C@H](C)NC(=O)[C@H](C)NC1=O)C(C)C)C(C)C)C(C)C` [ILPFVAGVAAEMMQHVYCAASKKC], for which the MIC in experiment [1] came to 2.26 µM (≈ 5.8 µg/mL); in experiment [2], 2.26 µM (≈ 5.8 µg/mL); in experiment [3] it was 4.52 µM (≈ 11.6 µg/mL); in experiment [4], 4.52 µM (≈ 11.6 µg/mL).

With `CC[C@H](C)[C@@H]1NC(=O)[C@H](CCCCN)NC(=O)[C@@H](NC(=O)[C@H](CCCCN)NC(=O)[C@H](CC(C)C)NC(=O)[C@H](CC(N)=O)NC(=O)[C@H](CC(=O)O)NC(=O)[C@H](CC(C)C)NC(=O)[C@H](CC(C)C)NC(=O)[C@H](CC(N)=O)NC(=O)CNC(=O)[C@H](C)NC(=O)[C@H](CCC(=O)O)NC(=O)[C@H](CC(N)=O)NC(=O)[C@H](CCCCN)NC(=O)[C@H](C)NC(=O)[C@@H](NC(=O)[C@H](CC(N)=O)NC(=O)[C@H](CCCCN)NC(=O)[C@H](C)NC(=O)[C@@H](NC(=O)[C@H](CC(=O)O)NC(=O)[C@H](CCSC)NC(=O)[C@H](Cc2ccccc2)NC(=O)CN)[C@@H](C)O)C(C)C)CSSC[C@@H](C(=O)O)NC(=O)[C@H](C)NC(=O)[C@H](CCCCN)NC(=O)[C@H]([C@@H](C)O)NC1=O` [GFMDTAKNVAKNEAGNLLDNLKCKITKAC], the MIC came out at 2.02 µM (≈ 6.3 µg/mL) in experiment [1], 4.05 µM (≈ 12.6 µg/mL) in [2], 4.05 µM (≈ 12.6 µg/mL) in [3] and 2.02 µM (≈ 6.3 µg/mL) in experiment [4].

Take `CC[C@H](C)[C@H](NC(=O)[C@H](CC(C)C)NC(=O)[C@H](CC(C)C)NC(=O)[C@H](CC(N)=O)NC(=O)[C@H](CCCCN)NC(=O)[C@@H](NC(=O)[C@@H](NC(=O)[C@H](C)NC(=O)[C@H](CC(C)C)NC(=O)[C@@H](NC(=O)CN)C(C)C)[C@@H](C)O)C(C)C)C(=O)NCC(=O)N[C@H](C(=O)NCC(=O)N[C@@H](CC(=O)O)C(=O)NCC(=O)N[C@@H](C)C(=O)N[C@@H](C)C(=O)N[C@@H](CCC(N)=O)C(=O)N[C@@H](CO)C(=O)N[C@H](C(=O)N[C@@H](CC(C)C)C(=O)N[C@@H](CCCCN)C(=O)N[C@H](C(=O)N[C@@H](CC(C)C)C(=O)N[C@@H](CO)C(=O)N[C@H]1CSSC[C@@H](C(=O)O)NC(=O)[C@H](CC(=O)O)NC(=O)[C@H](CC(N)=O)NC(=O)[C@H](CO)NC(=O)[C@H](CC(C)C)NC(=O)[C@H](CCCCN)NC1=O)[C@@H](C)O)C(C)C)[C@@H](C)O` [GVLATVKNLLIGTGDGAAQSVLKTLSCKLSNDC]: the MIC in experiment [1] was found to be 3.4 µM (≈ 11.2 µg/mL); in [2], 3.4 µM (≈ 11.2 µg/mL); in [3], 13.6 µM (≈ 44.8 µg/mL); in experiment [4] it was 6.81 µM (≈ 22.4 µg/mL).

On to `CC[C@H](C)[C@H](NC(=O)[C@H](CC(C)C)NC(=O)CN)C(=O)N[C@@H](CC(=O)O)C(=O)N[C@H](C(=O)N[C@H](C(=O)N[C@@H](CCCCN)C(=O)N[C@@H](CC(N)=O)C(=O)N[C@@H](CCSC)C(=O)N[C@@H](C)C(=O)N[C@@H](CC(C)C)C(=O)N[C@@H](CC(N)=O)C(=O)N[C@@H](C)C(=O)N[C@@H](C)C(=O)N[C@@H](CCCCN)C(=O)N[C@@H](CO)C(=O)N[C@@H](C)C(=O)NCC(=O)N[C@H](C(=O)N[C@@H](CO)C(=O)N[C@H](C(=O)N[C@@H](CC(C)C)C(=O)N[C@@H](CC(N)=O)C(=O)N[C@H](C(=O)N[C@@H](CC(C)C)C(=O)N[C@@H](CO)C(=O)N[C@H]1CSSC[C@@H](C(=O)O)NC(=O)[C@H]([C@@H](C)O)NC(=O)[C@H](CCCCN)NC(=O)[C@H](CO)NC(=O)[C@H](CC(C)C)NC(=O)[C@H](CCCCN)NC1=O)[C@@H](C)O)C(C)C)C(C)C)[C@@H](C)CC)[C@@H](C)O` [GLIDTIKNMALNAAKSAGVSVLNTLSCKLSKTC], for which the MIC in [1] turned out to be 3.06 µM (≈ 10.3 µg/mL); in [2], 6.12 µM (≈ 20.6 µg/mL); in experiment [3] it was 12.2 µM (≈ 41.2 µg/mL); in experiment [4] it was 6.12 µM (≈ 20.6 µg/mL).

Take `CC[C@H](C)[C@H](NC(=O)CNC(=O)[C@H](CO)NC(=O)[C@H](CC(C)C)NC(=O)[C@H](Cc1cnc[nH]1)NC(=O)[C@@H]1CCCN1C(=O)[C@H](CC(C)C)NC(=O)[C@H](CC(C)C)NC(=O)[C@H](CCC(=O)O)NC(=O)[C@H](CCCCN)NC(=O)[C@@H](NC(=O)[C@@H](N)Cc1ccccc1)[C@@H](C)CC)C(=O)N[C@H](C(=O)N[C@@H](CC(=O)O)C(=O)N[C@@H](CO)C(=O)N[C@H](C(=O)N[C@@H](C)C(=O)N[C@@H](CC(N)=O)C(=O)N[C@@H](C)C(=O)N[C@H](C(=O)N[C@@H](CCCCN)C(N)=O)[C@@H](C)CC)C(C)C)[C@@H](C)CC` [FIKELLPHLSGIIDSVANAIK]: the MIC in experiment [5] is at least 110 µM; in experiment [6], at least 55 µM.

On to `CC[C@H](C)[C@H](NC(=O)[C@@H]1CCCN1C(=O)[C@@H]1CCCN1)C(=O)N[C@H](C(=O)NCC(=O)N[C@@H](CO)C(=O)N[C@H](C(=O)N1CCC[C@H]1C(=O)N[C@@H](CC(C)C)C(=O)NCC(=O)N[C@@H](CS)C(=O)NCC(N)=O)[C@@H](C)CC)C(C)C` [PPIVGSIPLGCG], for which the MIC in experiment [2] was over 128 µM; in the experiment with Escherichia coli UB1005, at least 128 µM; in [7], at least 128 µM; in [4], over 128 µM; in experiment [8], over 128 µM; in experiment [9], over 128 µM.

For `CC[C@H](C)[C@H](NC(=O)[C@H](CC(C)C)NC(=O)[C@H](CC(C)C)NC(=O)[C@H](CC(=O)O)NC(=O)[C@H](CCCCN)NC(=O)[C@@H](NC(=O)[C@@H](NC(=O)CNC(=O)[C@H](CC(C)C)NC(=O)[C@@H](NC(=O)[C@@H](N)CO)C(C)C)[C@@H](C)O)C(C)C)C(=O)NCC(=O)N[C@@H](C)C(=O)NCC(=O)N[C@@H](CCCCN)C(=O)N[C@@H](CO)C(=O)N[C@@H](C)C(=O)N[C@@H](C)C(=O)N[C@@H](CCC(N)=O)C(=O)N[C@@H](CO)C(=O)N[C@H](C(=O)N[C@@H](CC(C)C)C(=O)N[C@H](C(=O)N[C@@H](C)C(=O)N[C@@H](CC(N)=O)C(=O)N[C@@H](CO)C(=O)N[C@H]1CSSC[C@@H](C(=O)O)NC(=O)[C@H](CO)NC(=O)[C@H](CC(N)=O)NC(=O)[C@H](CO)NC(=O)[C@H](CC(C)C)NC(=O)[C@H](CCCCN)NC1=O)[C@@H](C)O)C(C)C` [SVLGTVKDLLIGAGKSAAQSVLTANSCKLSNSC], the MIC turned out to be 3.65 µM (≈ 11.8 µg/mL) in [1], 3.65 µM (≈ 11.8 µg/mL) in experiment [2], 3.65 µM (≈ 11.8 µg/mL) in experiment [3] and 1.82 µM (≈ 5.9 µg/mL) in [4].

Turning to `CC[C@H](C)[C@H](NC(=O)[C@H](CCCCN)NC(=O)[C@H](CCCCN)NC(=O)[C@H](Cc1ccccc1)NC(=O)[C@H](CC(C)C)NC(=O)[C@H](CCCCN)NC(=O)[C@H](Cc1c[nH]c2ccccc12)NC(=O)[C@@H](N)CCCCN)C(=O)N[C@@H](Cc1c[nH]c2ccccc12)C(=O)N[C@@H](Cc1c[nH]c2ccccc12)C(=O)N1CCC[C@H]1C(=O)N[C@@H](Cc1ccccc1)C(=O)N[C@@H](CC(C)C)C(=O)N[C@@H](CCCN=C(N)N)C(=O)N[C@@H](CCCN=C(N)N)C(N)=O` [KWKLFKKIWWPFLRR], the MIC is 2 µM (≈ 4.26 µg/mL) in [10]; 4 µM (≈ 8.53 µg/mL) in the experiment with Escherichia coli UB1005; 4 µM (≈ 8.53 µg/mL) in experiment [11]; 4 µM (≈ 8.53 µg/mL) in experiment [12]; 4 µM (≈ 8.53 µg/mL) in [13]; 2 µM (≈ 4.26 µg/mL) in experiment [7]. In [9], this compound yielded an MIC of 2 µM (≈ 4.26 µg/mL).
